Laboratory results from US7589104B2, “Tricyclic-bridged piperidinyline derivatives as §-opioid modulators” (Janssen Pharmaceutica NV, priority 2004, dated 2009).
pKi: −log10 of the molar value. Where two headings read alike, the source gives them in different places.

Columns and labels:
delta opioid receptor = target: T1, delta opioid receptor (Rattus norvegicus, UniProt P33533); assay: Rat Brain Delta Opioid Receptor Binding Assay
T1 construct: from tissue; host or cells: forebrain of male Wistar rats (Charles River)
T1 sequence (P33533 whole entry): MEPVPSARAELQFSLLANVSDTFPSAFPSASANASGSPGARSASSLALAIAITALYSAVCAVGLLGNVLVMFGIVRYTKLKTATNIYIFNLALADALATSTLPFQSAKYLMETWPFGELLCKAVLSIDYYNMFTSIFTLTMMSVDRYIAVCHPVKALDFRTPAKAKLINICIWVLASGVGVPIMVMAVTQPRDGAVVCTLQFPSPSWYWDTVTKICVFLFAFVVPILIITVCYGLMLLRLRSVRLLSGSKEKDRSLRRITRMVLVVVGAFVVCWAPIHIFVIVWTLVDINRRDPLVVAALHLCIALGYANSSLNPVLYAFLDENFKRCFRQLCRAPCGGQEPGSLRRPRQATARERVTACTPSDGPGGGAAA

mu opioid receptor = target: T2, mu opioid receptor (Rattus norvegicus, UniProt P33535); assay: Rat Brain Mu Opioid Receptor Binding Assay
T2 construct: Following incubation with the mu selective peptide ligand, ˜0.8 nM [^3H]DAMGO; from tissue; host or cells: forebrain of male Wistar rats (Charles River)
T2 sequence (P33535 whole entry): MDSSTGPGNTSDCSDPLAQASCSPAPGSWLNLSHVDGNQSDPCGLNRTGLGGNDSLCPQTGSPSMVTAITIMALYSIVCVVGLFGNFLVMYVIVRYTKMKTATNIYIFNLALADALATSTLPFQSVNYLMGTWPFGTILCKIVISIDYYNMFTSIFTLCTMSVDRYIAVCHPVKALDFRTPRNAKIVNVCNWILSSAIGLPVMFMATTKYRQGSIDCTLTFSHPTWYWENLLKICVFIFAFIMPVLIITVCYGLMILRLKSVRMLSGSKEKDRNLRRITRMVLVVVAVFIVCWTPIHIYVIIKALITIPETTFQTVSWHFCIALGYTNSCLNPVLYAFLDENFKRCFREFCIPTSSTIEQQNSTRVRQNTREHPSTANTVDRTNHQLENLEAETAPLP

[1] = rat forebrain membranes, [3H]DAMGO, read-out: mu (Ki)

SMILES | pKi (delta opioid receptor) | also measured
COc1cccc2c1Oc1cc(-c3ccccc3NC(C)=O)ccc1C2C1CC2CCC(C1)N2 (stereo not shown) [Compound 2l, N-{2-[9-(8-Aza-bicyclo[3.2.1]oct-3-yl)-5-methoxy-9H-xanthen-3-yl]-phenyl}-acetamide] | – | pKi (delta opioid receptor; rat forebrain membranes, [3H]DPDPE or [3H]naltrindole, read-out: delta (Ki)): 6.75; pKi (mu opioid receptor; [1]): 5.43
O=c1[nH]c(-c2ccc3c(c2)Oc2ccccc2C3C2CCNCC2)no1 (stereo not shown) [Compound 2n, 3-(9-Piperidin-4-yl-9H-xanthen-3-yl)-4H-[1,2,4]oxadiazol-5-one] | 5.89 | –
c1cncc(-c2ccc3c(c2)Oc2ccccc2C3C2CC3CCC(C2)N3)c1 (stereo not shown) [Compound 3b, 3-(3-Pyridin-3-yl-9H-xanthen-9-yl)-8-aza-bicyclo[3.2.1]octane] | 5.50 | pKi (mu opioid receptor): 5.35
O=C(c1ccc2c(c1)Oc1ccccc1C2C1CC2CCC(C1)N2)N1CCCC1 (stereo not shown) [Compound 3g, [9-(8-Aza-bicyclo[3.2.1]oct-3-yl)-9H-xanthen-3-yl]-pyrrolidin-1-yl-methanone] | 6.08 | pKi (mu opioid receptor): 5.12
CC(=O)Nc1ccccc1-c1ccc2c(c1)Oc1c(O)cccc1C2C1CC2CCC(C1)N2 (stereo not shown) [Compound 3l, N-{2-[9-(8-Aza-bicyclo[3.2.1]oct-3-yl)-5-hydroxy-9H-xanthen-3-yl]-phenyl}-acetamide] | 8.81 | pKi (mu opioid receptor): 7.69
O=C(c1ccc2c(c1)Oc1ccccc1C2C1CC2CCC(C1)N2)N1CCC(O)C1 (stereo not shown) [Compound 3o, [9-(8-Aza-bicyclo[3.2.1]oct-3-yl)-9H-xanthen-3-yl]-(3-hydroxy-pyrrolidin-1-yl)-methanone] | 5.92 | –
c1cncc(-c2ccc3c(c2)Oc2ccccc2C3C2CC3CCC(C2)N3Cc2ccoc2)c1 (stereo not shown) [Compound 4b, 8-Furan-3-ylmethyl-3-(3-pyridin-3-yl-9H-xanthen-9-yl)-8-aza-bicyclo[3.2.1]-octane] | 7.53 | pKi (mu opioid receptor): 6.25
CC(=O)Nc1ccccc1-c1ccc2c(c1)Oc1c(O)cccc1C2C1CC2CCC(C1)N2Cc1ccoc1 (stereo not shown) [Compound 4l, N-{2-[9-(8-Furan-3-ylmethyl-8-aza-bicyclo[3.2.1]oct-3-yl)-5-hydroxy-9H-xanthen-3-yl]-phenyl}-acetamide] | 7.65 | –
CCN(CC)C(=N)c1ccc2c(c1)Oc1ccccc1C2C1CC2CCC(C1)N2 (stereo not shown) [Compound 4m, 9-(8-Aza-bicyclo[3.2.1]oct-3-yl)-N,N-diethyl-9H-xanthene-3-carboxamidine] | 6.68 | –
c1ccc2c(c1)Oc1cc(-c3ccoc3)ccc1C2C1CC2CCC(C1)N2 (stereo not shown) [Compound 5b, 3-(3-Furan-3-yl-9H-xanthen-9-yl)-8-aza-bicyclo[3.2.1]octane] | 5.46 | pKi (mu opioid receptor): 4.71
c1ccc2c(c1)Oc1cc(-c3nnn[nH]3)ccc1C2C1CC2CCC(C1)N2 (stereo not shown) [Compound 5j, 3-[3-(1H-Tetrazol-5-yl)-9H-xanthen-9-yl]-8-aza-bicyclo[3.2.1]octane] | 6.32 | pKi (mu opioid receptor): 5.32
CC(=O)Nc1ccccc1-c1ccc2c(c1)Oc1c(O)cccc1C2C1CC2CCC(C1)N2Cc1cccs1 (stereo not shown) [Compound 5l, N-{2-[5-Hydroxy-9-(8-thiophen-2-ylmethyl-8-aza-bicyclo[3.2.1]oct-3-yl)-9H-xanthen-3-yl]-phenyl}-acetamide] | 8.19 | –
CCN(CC)C(=N)c1ccc2c(c1)Oc1ccccc1C2C1CC2CCC(C1)N2Cc1ccoc1 (stereo not shown) [Compound 5m, N,N-Diethyl-9-(8-furan-3-ylmethyl-8-aza-bicyclo[3.2.1]oct-3-yl)-9H-xanthene-3-carboxamidine] | 6.63 | –
c1ccc2c(c1)Oc1cc(-c3ccsc3)ccc1C2C1CC2CCC(C1)N2 (stereo not shown) [Compound 6b, 3-(3-Thiophen-3-yl-9H-xanthen-9-yl)-8-aza-bicyclo[3.2.1]octane] | 5.24 | pKi (mu opioid receptor): 4.08
CCN(CC)C(=O)c1ccc2c(c1)Oc1c(C)cccc1C2C1CC2CCC(C1)N2 (stereo not shown) [Compound 6h, 9-(8-Aza-bicyclo[3.2.1]oct-3-yl)-5-methyl-9H-xanthene-3-carboxylic acid diethylamide] | 7.14 | pKi (mu opioid receptor): 5.33
CCN(CC)C(=O)c1ccc2c(c1)Oc1c(Cl)cccc1C2C1CC2CCC(C1)N2 (stereo not shown) [Compound 6i, 9-(8-Aza-bicyclo[3.2.1]oct-3-yl)-5-chloro-9H-xanthene-3-carboxylic acid diethylamide] | 5.48 | pKi (mu opioid receptor): < 5.00
c1ccc2c(c1)Oc1cc(-c3nnn[nH]3)ccc1C2C1CC2CCC(C1)N2Cc1ccoc1 (stereo not shown) [Compound 6j, 8-Furan-3-ylmethyl-3-[3-(1H-tetrazol-5-yl)-9H-xanthen-9-yl]-8-aza-bicyclo[3.2.1]octane] | 7.69 | –
CC(=O)Nc1ccccc1-c1ccc2c(c1)Oc1c(O)cccc1C2C1CC2CCC(C1)N2Cc1ccccn1 (stereo not shown) [Compound 6l, N-{2-[5-Hydroxy-9-(8-pyridin-2-ylmethyl-8-aza-bicyclo[3.2.1]oct-3-yl)-9H-xanthen-3-yl]-phenyl}-acetamide] | 7.30 | –
CCN(CC)C(=N)c1ccc2c(c1)Oc1ccccc1C2C1CC2CCC(C1)N2Cc1cccs1 (stereo not shown) [Compound 6m, N,N-Diethyl-9-(8-thiophen-2-ylmethyl-8-aza-bicyclo[3.2.1]oct-3-yl)-9H-xanthene-3-carboxamidine] | 6.79 | –

SMILES | pKi (delta opioid receptor) | also measured
CC(=O)Nc1ccccc1-c1ccc2c(c1)Oc1ccccc1C2C1CC2CCC(C1)N2 (stereo not shown) [Compound 7b, N-{2-[9-(8-Aza-bicyclo[3.2.1]oct-3-yl)-9H-xanthen-3-yl]-phenyl}-acetamide] | 6.37 | pKi (mu opioid receptor): 5.20
CCN(CC)C(=O)c1ccc2c(c1)Oc1c(-c3ccccc3)cccc1C2C1CC2CCC(C1)N2 (stereo not shown) [Compound 7d, 9-(8-Aza-bicyclo[3.2.1]oct-3-yl)-5-phenyl-9H-xanthene-3-carboxylic acid diethylamide] | 7.04 | pKi (mu opioid receptor; [1]): 5.09
c1csc(CN2C3CCC2CC(C2c4ccccc4Oc4cc(-c5nnn[nH]5)ccc42)C3)c1 (stereo not shown) [Compound 7j, 3-[3-(1H-Tetrazol-5-yl)-9H-xanthen-9-yl]-8-thiophen-2-ylmethyl-8-aza-bicyclo[3.2.1]octane] | 7.86 | –
CC(=O)Nc1ccccc1-c1ccc2c(c1)Oc1c(O)cccc1C2C1CC2CCC(C1)N2Cc1ccccc1 (stereo not shown) [Compound 7l, N-{2-[9-(8-Benzyl-8-aza-bicyclo[3.2.1]oct-3-yl)-5-hydroxy-9H-xanthen-3-yl]-phenyl}-acetamide] | 7.66 | –
CCN(CC)C(=N)c1ccc2c(c1)Oc1ccccc1C2C1CC2CCC(C1)N2Cc1ccccn1 (stereo not shown) [Compound 7m, N,N-Diethyl-9-(8-pyridin-2-ylmethyl-8-aza-bicyclo[3.2.1]oct-3-yl)-9H-xanthene-3-carboxamidine] | 7.76 | –
c1ccc(CN2C3CCC2CC(C2c4ccccc4Oc4cc(-c5nnn[nH]5)ccc42)C3)nc1 (stereo not shown) [Compound 8j, 8-Pyridin-2-ylmethyl-3-[3-(1H-tetrazol-5-yl)-9H-xanthen-9-yl]-8-aza-bicyclo[3.2.1]octane] | 6.75 | –
CC(=O)Nc1ccccc1-c1ccc2c(c1)Oc1c(O)cccc1C2C1CC2CCC(C1)N2CCc1ccccc1 (stereo not shown) [Compound 8l, N-{2-[5-Hydroxy-9-(8-phenethyl-8-aza-bicyclo[3.2.1]oct-3-yl)-9H-xanthen-3-yl]-phenyl}-acetamide] | 7.58 | –
CCN(CC)C(=N)c1ccc2c(c1)Oc1ccccc1C2C1CC2CCC(C1)N2Cc1ccccc1 (stereo not shown) [Compound 8m, 9-(8-Benzyl-8-aza-bicyclo[3.2.1]oct-3-yl)-N,N-diethyl-9H-xanthene-3-carboxamidine] | 6.46 | –
c1ccc(CN2C3CCC2CC(C2c4ccccc4Oc4cc(-c5nnn[nH]5)ccc42)C3)cc1 (stereo not shown) [Compound 9j, 8-Benzyl-3-[3-(1H-tetrazol-5-yl)-9H-xanthen-9-yl]-8-aza-bicyclo[3.2.1]octane] | 6.75 | –
Oc1cccc2c1Oc1cc(-c3cccnc3)ccc1C2C1CC2CCC(C1)N2Cc1ccoc1 (stereo not shown) [Compound 9k, 9-(8-Furan-3-ylmethyl-8-aza-bicyclo[3.2.1]oct-3-yl)-6-pyridin-3-yl-9H-xanthen-4-ol] | 7.30 | –
CC(=O)Nc1ccccc1-c1ccc2c(c1)Oc1c(O)cccc1C2C1CC2CCC(C1)N2Cc1ncc[nH]1 (stereo not shown) [Compound 9l, N-(2-{5-Hydroxy-9-[8-(1H-imidazol-2-ylmethyl)-8-aza-bicyclo[3.2.1]oct-3-yl]-9H-xanthen-3-yl}-phenyl)-acetamide] | 8.31 | –
CCN(CC)C(=N)c1ccc2c(c1)Oc1ccccc1C2C1CC2CCC(C1)N2CCc1ccccc1 (stereo not shown) [Compound 9m, N,N-Diethyl-9-(8-phenethyl-8-aza-bicyclo[3.2.1]oct-3-yl)-9H-xanthene-3-carboxamidine] | 6.04 | –
c1ccc(CCN2C3CCC2CC(C2c4ccccc4Oc4cc(-c5nnn[nH]5)ccc42)C3)cc1 (stereo not shown) [Compound 10j, 8-Phenethyl-3-[3-(1H-tetrazol-5-yl)-9H-xanthen-9-yl]-8-aza-bicyclo[3.2.1]octane] | 5.94 | –
Oc1cccc2c1Oc1cc(-c3cccnc3)ccc1C2C1CC2CCC(C1)N2Cc1cccs1 (stereo not shown) [Compound 10k, 6-Pyridin-3-yl-9-(8-thiophen-2-ylmethyl-8-aza-bicyclo[3.2.1]oct-3-yl)-9H-xanthen-4-ol] | 7.34 | –
Oc1cccc2c1Oc1cc(-c3cccnc3)ccc1C2C1CC2CCC(C1)N2Cc1ccccn1 (stereo not shown) [Compound 11k, 6-Pyridin-3-yl-9-(8-pyridin-2-ylmethyl-8-aza-bicyclo[3.2.1]oct-3-yl)-9H-xanthen-4-ol] | 8.52 | –
Oc1cccc2c1Oc1cc(-c3cccnc3)ccc1C2C1CC2CCC(C1)N2Cc1ccccc1 (stereo not shown) [Compound 12k, 9-(8-Benzyl-8-aza-bicyclo[3.2.1]oct-3-yl)-6-pyridin-3-yl-9H-xanthen-4-ol] | 7.40 | –
Oc1cccc2c1Oc1cc(-c3cccnc3)ccc1C2C1CC2CCC(C1)N2CCc1ccccc1 (stereo not shown) [Compound 13k, 9-(8-Phenethyl-8-aza-bicyclo[3.2.1]oct-3-yl)-6-pyridin-3-yl-9H-xanthen-4-ol] | 6.55 | –
c1cncc(-c2ccc3c(c2)Oc2ccccc2C3C2CC3CCC(C2)N3Cc2ncc[nH]2)c1 (stereo not shown) [Compound 26b, 8-(1H-Imidazol-2-ylmethyl)-3-(3-pyridin-3-yl-9H-xanthen-9-yl)-8-aza-bicyclo[3.2.1]octane] | 6.47 | –
